Like-named read-outs stand apart in the source and are kept apart here.
Columns and labels:
[1] = biological target: CYP2D6 (Homo sapiens, UniProt P10635); test: Cytochrome P450 inhibition assay in human liver microsomes (dextromethorphan substrate)
Description: (§1) The Cytochrome P450 (CYP450) inhibition assay was performed to assess GAL (1–15) using substrates specific for the CYP3A4, CYP2D6, and CYP2C9 isoforms. […] Following the addition of human liver microsomes (HLM) and specific substrates (testosterone for CYP3A4, dextromethorphan for CYP2D6, diclofenac for CYP2C9), reactions were incubated with shaking at 180 Hz (CYP3A4: 15 min; CYP2D6: 30 min; CYP2C9: 45 min). […] Reactions were quenched with acetonitrile, centrifuged, and analyzed using LC-MS/MS with a triple quadrupole mass spectrometer (AB SCIEX API4000) coupled to an Agilent 1290 HPLC system ([Fowler et al., 2022]). Data were processed using Genedata Screener software to calculate IC50 values.

[2] = biological target: T1, CYP3A4 (Homo sapiens, UniProt P08684); test: Cytochrome P450 inhibition assay in human liver microsomes (testosterone substrate); type: in vitro ADME
T1 construct: Following the addition of human liver microsomes (HLM) and specific substrates; from tissue; host or cells: human liver microsomes
T1 sequence (P08684 whole entry): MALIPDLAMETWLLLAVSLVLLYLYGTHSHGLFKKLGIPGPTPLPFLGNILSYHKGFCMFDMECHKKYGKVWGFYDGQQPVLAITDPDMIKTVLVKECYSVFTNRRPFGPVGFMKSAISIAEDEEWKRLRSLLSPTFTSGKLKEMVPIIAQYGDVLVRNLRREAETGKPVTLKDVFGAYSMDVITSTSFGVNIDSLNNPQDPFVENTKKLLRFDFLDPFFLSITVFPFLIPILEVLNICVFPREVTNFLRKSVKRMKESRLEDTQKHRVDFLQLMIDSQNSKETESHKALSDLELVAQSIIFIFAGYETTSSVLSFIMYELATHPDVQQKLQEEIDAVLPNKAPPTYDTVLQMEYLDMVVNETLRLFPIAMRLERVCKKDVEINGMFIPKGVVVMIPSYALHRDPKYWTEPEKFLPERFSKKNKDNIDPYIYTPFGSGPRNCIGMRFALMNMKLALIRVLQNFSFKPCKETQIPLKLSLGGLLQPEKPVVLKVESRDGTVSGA
Description: as §1

[3] = biological target: CYP2C9 (Homo sapiens, UniProt P11712); test: Cytochrome P450 inhibition assay in human liver microsomes (diclofenac substrate)
CYP2C9, sequence (P11712 whole entry): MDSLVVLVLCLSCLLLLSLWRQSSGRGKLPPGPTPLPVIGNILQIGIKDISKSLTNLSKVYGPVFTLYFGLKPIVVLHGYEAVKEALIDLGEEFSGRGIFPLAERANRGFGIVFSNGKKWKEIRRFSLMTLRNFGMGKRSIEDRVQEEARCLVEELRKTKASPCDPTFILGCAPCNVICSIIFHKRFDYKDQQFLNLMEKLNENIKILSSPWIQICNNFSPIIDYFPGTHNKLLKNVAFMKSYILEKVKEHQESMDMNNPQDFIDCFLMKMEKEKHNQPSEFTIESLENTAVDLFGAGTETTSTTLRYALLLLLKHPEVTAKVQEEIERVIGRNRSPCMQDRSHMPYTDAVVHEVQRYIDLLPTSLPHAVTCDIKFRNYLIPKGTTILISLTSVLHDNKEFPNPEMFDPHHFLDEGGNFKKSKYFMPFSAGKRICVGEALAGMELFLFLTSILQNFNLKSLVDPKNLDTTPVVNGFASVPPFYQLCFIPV
Description: as §1

[4] = biological target: hERG potassium channel (Homo sapiens, UniProt Q12809); test: hERG inhibition, FluxOR potassium assay in hERG-expressing HEK293 cells
hERG potassium channel, sequence (Q12809 whole entry): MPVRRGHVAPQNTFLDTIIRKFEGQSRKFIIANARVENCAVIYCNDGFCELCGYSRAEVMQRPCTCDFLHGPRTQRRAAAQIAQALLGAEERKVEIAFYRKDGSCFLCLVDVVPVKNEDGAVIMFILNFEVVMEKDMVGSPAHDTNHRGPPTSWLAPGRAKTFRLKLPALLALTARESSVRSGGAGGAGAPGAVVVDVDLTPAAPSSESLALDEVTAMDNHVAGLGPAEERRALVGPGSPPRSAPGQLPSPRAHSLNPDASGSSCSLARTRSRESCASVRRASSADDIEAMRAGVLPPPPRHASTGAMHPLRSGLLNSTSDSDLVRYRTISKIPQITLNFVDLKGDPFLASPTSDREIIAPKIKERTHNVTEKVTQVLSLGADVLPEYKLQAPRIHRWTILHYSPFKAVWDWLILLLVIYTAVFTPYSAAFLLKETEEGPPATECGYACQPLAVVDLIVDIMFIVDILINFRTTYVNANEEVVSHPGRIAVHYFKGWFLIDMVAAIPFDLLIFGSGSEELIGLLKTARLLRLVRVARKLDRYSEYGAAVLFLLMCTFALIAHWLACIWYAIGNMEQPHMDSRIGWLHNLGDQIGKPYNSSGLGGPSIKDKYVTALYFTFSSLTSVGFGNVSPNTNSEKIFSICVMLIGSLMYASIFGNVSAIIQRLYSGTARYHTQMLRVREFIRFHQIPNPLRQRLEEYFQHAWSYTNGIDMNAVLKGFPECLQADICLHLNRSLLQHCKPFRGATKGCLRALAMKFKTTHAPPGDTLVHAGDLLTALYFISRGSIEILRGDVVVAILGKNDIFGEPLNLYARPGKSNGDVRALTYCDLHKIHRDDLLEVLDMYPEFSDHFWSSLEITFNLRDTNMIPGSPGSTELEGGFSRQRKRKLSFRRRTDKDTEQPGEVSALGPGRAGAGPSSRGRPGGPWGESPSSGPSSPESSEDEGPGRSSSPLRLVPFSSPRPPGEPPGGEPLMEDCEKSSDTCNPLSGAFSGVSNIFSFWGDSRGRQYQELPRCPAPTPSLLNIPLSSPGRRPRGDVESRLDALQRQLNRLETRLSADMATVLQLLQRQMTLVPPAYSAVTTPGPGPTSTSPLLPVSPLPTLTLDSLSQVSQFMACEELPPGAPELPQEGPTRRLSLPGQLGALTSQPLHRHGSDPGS
Description: Cardiotoxicity of GAL (1–15) was assessed in hERG-expressing HEK cells using the FluxOR™ potassium assay (Invitrogen) on a FLIPR TETRA system. Cells were preloaded with FluxOR™ dye, followed by incubation with GAL (1–15) in a 10-point half-log dose-response curve (max concentration: 50 µM). After a 30-min equilibration, the thallium stimulation buffer was injected to measure potassium flux kinetics. […] Data were analyzed using Genedata Screener software, with IC50 values determined via the Hill model ([Annang et al., 2021]; [Lee et al., 2019]).

[5] = system: rats; design: method as in Cantero-García et al., 2022a; details: 3 nmol intracerebroventricular; ref Cantero-García et al., 2022a; cited from earlier work
[6] = system: Sprague Dawley rats; test: Operant alcohol self-administration test after intranasal administration; type: in vivo, rat; details: 75 μg intranasal, 1 h before test
Description: (§2) Male Sprague Dawley rats (body weight 200–225 g) were obtained from Charles River (Barcelona, Spain) and maintained in a humidity-controlled and temperature-controlled (20 °C–22 °C) room. Rats were maintained during the alcohol protocol on a 12-h reversed light/dark cycle (lights off at 9 a.m.). All animal experimentation was conducted in accordance with the University of Málaga Guidelines for the Care and Use of Laboratory Animals (Ethic Code: 22/05/2017/066).
(§3) Animals were preacclimated to the procedure and handled daily for 3 days to reduce stress. Rats were administered under light anaesthesia with isoflurane (3%–4% for induction and 1.5%–2% for maintenance) for approximately 2–3 min, sufficient to prevent movement during intranasal administration. A single intranasal infusion of GAL (1–15) (TOCRIS, Bristol, United Kingdom, molecular weight = 1557 g/mol) was administered at doses of 37.5 μg, 75 μg, 150 μg, or 300 μg, equivalent to those used with other peptides ([Serova et al., 2013]; [Serova et al., 2019]). Doses were dissolved in 20 μL of distilled water, with 10 μL administered into each nostril using a disposable plastic-tipped pipette, without inserting deeply, 30 min or 1 h before behavioral testing, as described previously ([Serova et al., 2013]; [Serova et al., 2019]). Care was taken to avoid contact with the intranasal mucosa. After intranasal administration, the animal’s head was held back for approximately 15 s to prevent loss of solution from the nostrils. Animals returned to normal behavior within 1–2 min, and no subjects needed to be withdrawn due to intolerance.
Training and testing were conducted in standard operant chambers (Panlab, Barcelona, Spain). Each chamber (250 mm W × 250 mm D × 250 mm H) was equipped with a drinking reservoir positioned 4 cm above the grid floor in the center of the front panel of the chamber, and two retractable levers were located 3 cm to right an left of the dinking receptacle. Each reservoir was calibrated to dispense 0.1 mL when the fixed ratio of lever presses was obtained. Chambers were connected to a computer running Packwin Sofware (2.0, Panlab, Barcelona, Spain).
Alcohol consumption was assessed using the previous self-administration test ([Cantero-García et al., 2022a]; [Cantero-García et al., 2022b]; [Lebourgeois et al., 2018]) (Figure 1B). Briefly, rats were exposed to intermittent consumption of 0.2% saccharin and 10% alcohol for 3 weeks. After that, rats were placed on a water restriction schedule for 2–4 days to facilitate training in lever pressing. […]

[7] = system: Sprague Dawley rats; test: Forced swimming test (FST) after intranasal administration; type: in vivo, rat; details: for Climbing / Immobility / Swimming: mean ± SEM
Description: as §2, §3
Depressive behavior was assessed using the FST, as described previously ([Millón et al., 2014]; [Cantero-García et al., 2022b]). Briefly, two swimming sessions were conducted: a 15-min pretest followed 24 h later by a 5-min test. Animals were individually placed in a vertical glass cylinder of 20 cm diameter containing water (25 °C) to a height of 30 cm. Immobility, swimming and climbing behaviors were evaluated and recorded during the second 5-min test. Behavioral scoring was conducted by a blinded experimenter using coded videos to ensure objectivity.
Two experiments were conducted in the FST (Figure 1A). A dose-response curve of GAL (1–15) was performed in the first set of experiments. For this, groups of rats received GAL (1–15) intranasally 37.5 μg (n = 6), 75 μg (n = 6), 150 μg (n = 6) or 300 μg (n = 6) or distilled water (n = 12) 30 min before the test. The effects in the FST of GAL (1–15) intranasally at 1 h were studied in the second set of experiments. For this, groups of rats received GAL (1–15) intranasal 37.5 μg (n = 8), 75 μg (n = 8) or distilled water (n = 4–5) 1 h before the test. Animals were randomly assigned to treatment groups.

[8] = system: rats; design: method as in Millón, 2014; details: 3 nmol intracerebroventricular; ref Millón, 2014; cited from earlier work
[9] = system: CHO cells; details: 24 h
Description: The study followed OECD Test Guideline 487 for micronucleus assessment in rodent CHO cells (ECACC ref: 85050302). Cells were seeded at 2,000/well in 96-well plates and incubated at 37 °C with 5% CO2. GAL (1–15) (2.52 mM stock) was tested at concentrations ranging from 3.12 to 50 μM for 24 h in six replicates. […] After treatment, cytochalasin B was added for 28 h to block cytokinesis, followed by fixation and Hoechst staining. Imaging was performed using the Operetta CLS High-Content Analysis System, and analysis was conducted with Harmony software and the in-house NucleusFinder App (ImageJ-based). NucleusFinder identified valid micronuclei under stringent criteria, excluding irregular structures ([Durcik et al., 2023]). The cytokinesis-block proliferation index (CBPI) was calculated to assess cytostatic effects, ensuring cytostasis remained below 60% to avoid secondary micronuclei induction due to cytotoxicity. Cytostasis was calculated as follows: %cytostasis = 100–100 [(CBPIT-1)/(CBPIC-1)] where T is the test compound treatment culture, C is the vehicle control culture, and CBPI = {(No. mononucleate cells) + (2 × No. binucleate cells) + (3 × No. multinucleate cells)}/(total number of cells).

[10] = system: rats; design: method as in Millón et al., 2019b; details: voluntary intake model; ref Millón et al., 2019b; cited from earlier work
[11] = 37.5 μg intranasal, 1 h before test
[12] = 75 μg intranasal, 1 h before test, p < 0.05 vs control
[13] = 150 μg intranasal, 30 min before test, p < 0.05
[14] = 300 μg intranasal, 30 min before test, p < 0.05

CYP2D6, sequence (P10635 whole entry, canonical isoform): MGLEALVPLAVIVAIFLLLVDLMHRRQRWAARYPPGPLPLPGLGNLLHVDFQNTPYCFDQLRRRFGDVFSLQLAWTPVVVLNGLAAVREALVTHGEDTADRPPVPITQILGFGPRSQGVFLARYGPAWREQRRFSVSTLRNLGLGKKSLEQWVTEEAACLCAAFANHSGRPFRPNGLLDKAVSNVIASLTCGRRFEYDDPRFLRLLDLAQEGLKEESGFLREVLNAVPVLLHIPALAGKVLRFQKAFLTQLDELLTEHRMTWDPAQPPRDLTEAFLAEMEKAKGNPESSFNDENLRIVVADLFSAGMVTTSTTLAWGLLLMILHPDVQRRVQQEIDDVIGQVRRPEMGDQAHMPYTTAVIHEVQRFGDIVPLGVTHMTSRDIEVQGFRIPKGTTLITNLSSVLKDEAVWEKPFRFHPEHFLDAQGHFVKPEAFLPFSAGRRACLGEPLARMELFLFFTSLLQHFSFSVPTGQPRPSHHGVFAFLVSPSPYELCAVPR

CC(C)C[C@H](NC(=O)[C@H](CC(C)C)NC(=O)[C@H](Cc1ccc(O)cc1)NC(=O)CNC(=O)[C@H](C)NC(=O)[C@H](CO)NC(=O)[C@H](CC(N)=O)NC(=O)[C@H](CC(C)C)NC(=O)[C@@H](NC(=O)[C@H](Cc1c[nH]c2ccccc12)NC(=O)CN)[C@@H](C)O)C(=O)NCC(=O)N1CCC[C@H]1C(=O)N[C@@H](Cc1cnc[nH]1)C(=O)N[C@@H](C)C(=O)O [GAL (1–15), Galanin (1–15)]
IC50 [1]: > 26 µM
CYP2D6 inhibitory potency class ([1]; human liver microsomes): weak (weak inhibitors (IC50 > 10 μM))
IC50 at 30 min ([1]; human, microsomes, pH 7.4): > 23 µM
CYP3A4 inhibitory potency class [2]: weak (weak inhibitors (IC50 > 10 μM))
IC50 at 15 min ([2]; pH 7.4, testosterone substrate, N = 3, read-out: CYP3A4 IC50 [lower and upper 95%]): > 23 µM
IC50 ([2]; testosterone substrate, N = 3, read-out: CYP3A4 IC50 [lower and upper 95%]): > 26 µM
IC50 [3]: > 26 µM
CYP2C9 inhibitory potency class ([3]; human liver microsomes): weak (weak inhibitors (IC50 > 10 μM))
IC50 at 45 min ([3]; human, microsomes, pH 7.4): > 23 µM
IC50 ([4]; Cardiotoxicity classification from hERG IC50, FluxOR potassium assay, HEK293-hERG): > 10 µM
IC50 ([4]; hERG IC50, HEK293 cells stably expressing hERG, FluxOR potassium assay, n = 3): 20.9 µM
Number of alcohol reinforcements [5]: significantly reduced
Total number of inactive lever presses vs control [6]: did not significantly differ
Active lever presses vs control ([6]; 30-min session, p < 0.01): significantly reduced
Number of alcohol reinforcements vs control ([6]; 30-min session, p < 0.01): marked decrease
Inactive lever presses ([6]; mean ± SEM): 0.2 ± 0.1
Behavioral effects in the FST ([7]; 37.5 μg intranasal, 30 min before test): did not produce significant behavioral effects
Immobility, swimming, or climbing behaviors in FST vs control [7, 11]: no significant alterations
Climbing [7, 11]: 109.6 ± 16.26 s
Immobility [7, 11]: 59.10 ± 23.04 s
Swimming [7, 11]: 97.75 ± 16.01 s
Immobility time in FST vs control ([7]; 75 μg intranasal, 30 min before test, p < 0.001): significant increase in immobility time
Swimming time in FST vs control ([7]; 75 μg intranasal, 30 min before test, p < 0.01): significantly decreased swimming time
Swimming ([7]; 75 μg intranasal, 1 h before test): 104.9 ± 15.86 s
Climbing [7, 12]: 62.96 ± 6.47 s
Immobility [7, 12]: 98.57 ± 18.74 s
Immobility time in FST vs control ([7]; 75 μg intranasal, 1 h before test, p < 0.05): increasing immobility time
Climbing time in FST vs control ([7]; 75 μg intranasal, 1 h before test, p ≤ 0.05): reducing climbing time
Immobility in FST vs control [7, 13]: significant increase in immobility
Swimming time in FST vs control [7, 13]: reduction in swimming time
Immobility in FST vs control [7, 14]: significant increase in immobility
Swimming time in FST vs control [7, 14]: reduction in swimming time
Climbing time in FST ([7]; any of the tested doses (37.5-300 μg) intranasal, 30 min before test): No effects were observed
Decrease in climbing behavior in FST [8]: 46%
Increase in immobility in FST [8]: 44%
% Cytostasis ([9]; 3.125 µM): 0%
% MN ([9]; 3.125 µM): 8.39%
No. binucleate cells ([9]; 3.125 µM): 3,324
No. of binucleated cells with MN ([9]; 3.125 µM): 278
% Cytostasis ([9]; 6.25 µM): 0%
% MN ([9]; 6.25 µM): 8.28%
No. binucleate cells ([9]; 6.25 µM): 3,210
No. of binucleated cells with MN ([9]; 6.25 µM): 265
% Cytostasis ([9]; 12.5 µM): 0%
% MN ([9]; 12.5 µM): 8.53%
No. binucleate cells ([9]; 12.5 µM): 3,209
No. of binucleated cells with MN ([9]; 12.5 µM): 273
% Cytostasis ([9]; 25 µM): 0%
% MN ([9]; 25 µM): 8.70%
No. binucleate cells ([9]; 25 µM): 3,135
No. of binucleated cells with MN ([9]; 25 µM): 272
% Cytostasis ([9]; 50 µM): 0.1%
% MN ([9]; 50 µM): 7.94%
No. binucleate cells ([9]; 50 µM): 3,108
No. of binucleated cells with MN ([9]; 50 µM): 246
Micronucleus formation ([9]; any tested concentration, highest 50 μM): did not induce micronucleus formation
Decrease in alcohol preference and consumption [10]: 90%

From paper PMC12689952 (Frontiers in Pharmacology, 2025)
